In ChEMBL document CHEMBL5030507, “Structure-Based Design of a Selective Class I Histone Deacetylase (HDAC) Near-Infrared (NIR) Probe for Epigenetic Regulation Detection in Triple-Negative Breast Cancer (TNBC)” (J Med Chem, 2021):

Assays:
Histone deacetylase 2 = Histone deacetylase 2 (Homo sapiens, UniProt Q92769); experiment: biochemical; assay type: cell-based, Sf9
Description: Inhibition of recombinant human full length C-terminal His- tagged HDAC2 (1 to 488 residues) expressed in Sf9 insect cells using fluorometric substrate measured after 60 mins by FRET assay

Histone deacetylase 9 = Histone deacetylase 9 (Homo sapiens, UniProt Q9UKV0); experiment: Inhibition of recombinant human C-terminal His-tagged HDAC9 (604 to 1066 residues) expressed in baculovirus infected Sf9 insect cells using fluorogenic substrate measured after 60 mins by FRET assay
[1] = target: T1, Protein deacetylase HDAC6 (Homo sapiens, UniProt Q9UBN7); experiment: Inhibition of recombinant human full length N-terminal GST-tagged HDAC6 expressed in Sf9 cells using fluorogenic substrate measured after 60 mins by FRET assay
T1 sequence (Q9UBN7 whole entry): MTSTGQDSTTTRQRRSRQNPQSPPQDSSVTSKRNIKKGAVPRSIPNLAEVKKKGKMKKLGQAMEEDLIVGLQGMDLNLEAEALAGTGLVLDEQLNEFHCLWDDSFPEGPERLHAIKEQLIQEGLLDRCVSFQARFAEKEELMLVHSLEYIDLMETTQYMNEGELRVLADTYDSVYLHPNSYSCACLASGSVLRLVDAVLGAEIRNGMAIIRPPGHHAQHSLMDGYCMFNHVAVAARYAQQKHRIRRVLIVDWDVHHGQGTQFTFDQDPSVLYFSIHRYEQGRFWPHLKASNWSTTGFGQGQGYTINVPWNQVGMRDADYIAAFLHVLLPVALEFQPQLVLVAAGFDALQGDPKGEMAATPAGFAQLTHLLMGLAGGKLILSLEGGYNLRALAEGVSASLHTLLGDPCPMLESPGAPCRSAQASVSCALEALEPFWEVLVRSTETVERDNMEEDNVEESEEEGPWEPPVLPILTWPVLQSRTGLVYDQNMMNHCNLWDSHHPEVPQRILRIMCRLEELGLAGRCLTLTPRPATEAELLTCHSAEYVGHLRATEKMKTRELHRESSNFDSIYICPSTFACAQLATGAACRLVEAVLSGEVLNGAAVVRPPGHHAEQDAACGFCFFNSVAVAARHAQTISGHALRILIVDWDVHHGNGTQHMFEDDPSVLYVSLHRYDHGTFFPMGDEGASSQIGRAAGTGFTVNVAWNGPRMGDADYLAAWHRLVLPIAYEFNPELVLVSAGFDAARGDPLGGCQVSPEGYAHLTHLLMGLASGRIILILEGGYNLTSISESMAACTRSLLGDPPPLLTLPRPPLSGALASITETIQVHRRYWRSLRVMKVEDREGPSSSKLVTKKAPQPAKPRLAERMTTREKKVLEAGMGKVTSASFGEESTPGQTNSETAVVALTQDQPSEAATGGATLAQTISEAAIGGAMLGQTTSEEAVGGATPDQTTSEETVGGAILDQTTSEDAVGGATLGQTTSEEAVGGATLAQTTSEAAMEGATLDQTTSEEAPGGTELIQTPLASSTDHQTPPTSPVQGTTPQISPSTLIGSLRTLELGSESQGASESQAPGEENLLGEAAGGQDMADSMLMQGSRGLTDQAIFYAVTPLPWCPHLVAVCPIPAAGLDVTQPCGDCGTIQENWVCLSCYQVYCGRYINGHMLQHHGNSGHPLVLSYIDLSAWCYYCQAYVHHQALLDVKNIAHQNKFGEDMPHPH

[2] = target: T2, Polyamine deacetylase HDAC10 (Homo sapiens, UniProt Q969S8); experiment: Inhibition of recombinant human N-terminal FLAG tagged HDAC10 (2 to 631 residues) expressed in baculovirus infected Sf9 insect cells using fluorogenic substrate measured after 60 mins by FRET assay
T2 sequence (Q969S8 whole entry): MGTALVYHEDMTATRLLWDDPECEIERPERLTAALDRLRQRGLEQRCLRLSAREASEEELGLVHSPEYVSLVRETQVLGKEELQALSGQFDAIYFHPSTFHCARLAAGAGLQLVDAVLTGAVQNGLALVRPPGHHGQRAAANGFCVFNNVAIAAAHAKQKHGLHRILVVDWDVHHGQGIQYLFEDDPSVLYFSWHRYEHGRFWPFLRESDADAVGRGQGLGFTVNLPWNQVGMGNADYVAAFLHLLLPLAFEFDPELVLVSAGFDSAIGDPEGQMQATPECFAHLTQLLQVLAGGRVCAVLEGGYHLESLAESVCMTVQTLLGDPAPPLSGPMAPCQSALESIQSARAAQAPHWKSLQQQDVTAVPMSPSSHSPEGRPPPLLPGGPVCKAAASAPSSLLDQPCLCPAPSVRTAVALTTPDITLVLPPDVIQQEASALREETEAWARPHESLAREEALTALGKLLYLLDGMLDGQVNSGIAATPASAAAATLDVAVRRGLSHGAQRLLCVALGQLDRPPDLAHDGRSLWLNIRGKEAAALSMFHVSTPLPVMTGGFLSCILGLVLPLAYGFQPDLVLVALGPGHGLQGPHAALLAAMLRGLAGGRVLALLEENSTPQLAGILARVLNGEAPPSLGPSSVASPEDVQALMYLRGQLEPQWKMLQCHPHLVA

Sequence of Histone deacetylase 2 (Q92769 whole entry, the tested form may be a part): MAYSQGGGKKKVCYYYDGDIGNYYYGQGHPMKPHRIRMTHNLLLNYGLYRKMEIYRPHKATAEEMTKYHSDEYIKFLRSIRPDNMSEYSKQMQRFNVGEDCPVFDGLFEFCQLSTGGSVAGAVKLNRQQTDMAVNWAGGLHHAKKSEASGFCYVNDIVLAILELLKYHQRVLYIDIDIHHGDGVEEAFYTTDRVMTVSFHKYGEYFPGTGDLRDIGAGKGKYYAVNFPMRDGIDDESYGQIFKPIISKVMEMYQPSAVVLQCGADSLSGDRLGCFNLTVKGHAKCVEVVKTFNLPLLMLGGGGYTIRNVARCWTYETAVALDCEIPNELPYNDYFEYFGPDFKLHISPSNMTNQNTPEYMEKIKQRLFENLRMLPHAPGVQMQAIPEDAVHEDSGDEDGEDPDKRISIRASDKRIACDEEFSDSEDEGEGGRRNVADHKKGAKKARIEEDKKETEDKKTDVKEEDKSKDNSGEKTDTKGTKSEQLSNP
Sequence of Histone deacetylase 9 (Q9UKV0 whole entry, the tested form may be a part): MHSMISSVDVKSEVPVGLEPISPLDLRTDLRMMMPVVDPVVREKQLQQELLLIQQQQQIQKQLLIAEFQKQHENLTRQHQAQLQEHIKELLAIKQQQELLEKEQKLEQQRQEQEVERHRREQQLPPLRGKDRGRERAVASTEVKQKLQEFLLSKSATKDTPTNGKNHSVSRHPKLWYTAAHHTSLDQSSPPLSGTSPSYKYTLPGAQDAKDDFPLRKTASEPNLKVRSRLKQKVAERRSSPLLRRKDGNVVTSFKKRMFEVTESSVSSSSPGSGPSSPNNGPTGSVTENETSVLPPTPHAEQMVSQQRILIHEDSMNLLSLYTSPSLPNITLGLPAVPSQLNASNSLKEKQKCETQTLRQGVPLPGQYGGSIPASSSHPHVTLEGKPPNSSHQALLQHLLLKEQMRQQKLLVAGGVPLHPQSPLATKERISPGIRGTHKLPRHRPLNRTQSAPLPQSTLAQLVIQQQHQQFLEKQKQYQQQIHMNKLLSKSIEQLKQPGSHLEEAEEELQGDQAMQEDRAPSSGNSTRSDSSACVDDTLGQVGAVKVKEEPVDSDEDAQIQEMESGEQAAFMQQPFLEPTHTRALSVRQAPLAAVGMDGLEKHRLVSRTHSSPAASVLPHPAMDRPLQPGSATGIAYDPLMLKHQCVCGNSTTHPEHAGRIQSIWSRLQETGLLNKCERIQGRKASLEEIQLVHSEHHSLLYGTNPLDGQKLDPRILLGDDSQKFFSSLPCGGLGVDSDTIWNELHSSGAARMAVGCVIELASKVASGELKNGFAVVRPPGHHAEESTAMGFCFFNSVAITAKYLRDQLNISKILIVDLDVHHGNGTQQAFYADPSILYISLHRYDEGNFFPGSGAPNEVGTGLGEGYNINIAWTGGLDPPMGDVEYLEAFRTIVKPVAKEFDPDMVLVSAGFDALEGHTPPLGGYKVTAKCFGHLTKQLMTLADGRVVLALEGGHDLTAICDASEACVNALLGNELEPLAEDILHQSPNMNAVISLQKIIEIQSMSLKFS

C/C=C1\NC(=O)c2csc(n2)CNC(=O)C[C@@H](/C=C/CCSSCCCCCCC)OC(=O)[C@H](CCCCN)NC1=O
IC50 (Histone deacetylase 2): 0.0075 µM
IC50 (Histone deacetylase 9): > 10 µM
IC50 [1]: > 10 µM
IC50 [2]: > 10 µM
